Assay results taken from patent US11117918B2, “Enzyme-directed immunostimulant and uses thereof” (Washington State University, priority 2016, dated 2021).

Assays:
β-galactosidase = β-galactosidase (Escherichia coli, UniProt P00722); assay: Conversion of Imiquimod-β-galactopyranoside (6) to Imiquimod by exogenous β-galactosidase, LC-MS/MS; assay type: biochemical, E. coli
Description: (§1) For LC-MS/MS experiments, mobile phase A consisted of 0.05% formic acid and 0.2% acetic acid in water, and mobile phase B comprised 90% acetonitrile, 9.9% water, and 0.1% formic acid. Using a flow rate of 400 μL/min, mobile phase B 5% isocratic for 0.5 min, before gradient to 95% B over 2.2 min, followed by 95% isocratic for 0.1 min. The total chromatographic assay time (including time to equilibrate for the next run) was 4.0 min per sample. Optimized mass spectrometer parameters were as follows: collision gas, 20 psig; curtain gas, 20 psig; ion source gas 1, 60 psig; ion source gas 2, 40 psig; ion spray voltage, 5500 V; desolvation temperature, 600° C.; declustering potential, 70 V; entrance potential, 10 V; collision energy, 50 V; collision cell exit potential, 10 V. The substrate was detected using multiple reaction monitoring mode by monitoring the m/z fragmentation from 597.8 to 241.2 Da for (6) and the Imiquimod product was monitored for 241.2 to 185.1 Da fragmentation.
To confirm the chemical identity of Imiquimod liberated by β-gal-mediated conversion of (6), an end-point assay was performed using 1 U of β-gal in 200 μL of 10 μm (6) incubated for 16 h (37° C., 5% CO2). To stop the reaction, 50 μL AO Quench Internal Standard (20 μg/mL 2-methyl-4(3H)-quinazolinone in 1 m formic acid) was added to the reaction. This aliquot was compared to a 200 μL sample of 10 μm (6) without β-gal enzyme.
To determine the conversion of Imiquimod-β-Galactopyranoside (6) to Imiquimod in the presence of β-gal over time for exogenous experiments, aliquots (200 μL) of (6) at a concentration of 5 μm in DPBS were incubated with β-gal (1 U, 37° C., 5% CO2). To stop the reaction at the specified time points (0, 1, 2 min), 50 μL AO Quench Internal Standard (20 μg/mL 2-methyl-4(3H)-quinazolinone in 1 m formic acid) was added to each individual reaction. Depletion of (6) was measured by LC-MS/MS for each time point. […] Similar to above, aliquots of (6) for various time points (0, 0.25, 0.5, 1, 2, 3 h) were tested for conversion to immunostimulant by exogenous β-galactosidase.
β-galactosidase from E. coli was diluted with sterile Dulbecco's Phosphate Buffer Saline (DPBS) to an initial concentration of 5,000 U/mL. Aliquots of this stock were diluted with additional DPBS to a concentration of 500 U/mL and 5 mU/mL. Because of the E. coli source for β-galactosidase, samples were filtered with a sterile 0.2 μm syringe filter to guard against potential residual bacteria. Absence of bacteria was confirmed prior to use; filtered samples were plated on an agar plate and incubated for 3 days (37° C., 5% CO2). No bacterial growth was observed from the filtered enzyme.

[1] = system: β-galactosidase-enriched B16 melanoma cells; assay: Conversion of (6) to Imiquimod by β-galactosidase-enriched B16 cells, LC-MS/MS; assay type: cell-based, murine
Description: as §1
Murine melanoma cells (B16-F10, 5×10^6 cells) were removed from cell culture and pelletized via centrifuge (200 RCF, 0° C., 10 min). The supernatant was removed from the cell pellet, and cells were suspended in 1.5 mL of complete culture media (10% HI-FBS in DMEM) or preservative free FACS solution (10% HI-FBS in DPBS) that was pre-chilled on ice. Next, 15 μL of 0.5 mg/mL biotinylated α-gp-100 antibody (Abcam, UK) was added to the suspended cells, and the suspension was incubated on ice for 30 min with occasional shaking. Cells were then pelletized (200 RCF, 10 min, 0° C.) and washed 4 times each with 10 mL of chilled preservative free FACS solution (10% HI-FBS in DPBS). Washing Procedure: The cell pellet was suspended in 10 mL of FACS and centrifuged (200 RCF, 0° C., 10 min). Supernatant was removed from pellet, and the cells were suspended in subsequent chilled FACS solution for 1 min with constant shaking before this procedure was repeated. […] Enzyme enrichment (20-350 pU/cell) was quantified as average increase in enzymatic activity per cell determined by NPG colorimetric assay.

AT3B1 cells = assay: Conversion of pro-immunostimulant to Imiquimod by α-Mannosidase or AT3B-1 cells, LC-MS/MS; assay type: cell-based, rat; conditions: α-Mannosidase 0.1 U/mL or AT3B1 cells, 0-48 h
Description: To concretely determine the conversion of pro-immunostimulant (compound 6) to Imiquimod in the presence of α-Mannosidase over time for exogenous and endogenous experiments, 20 μL aliquots of 100 μM (pro-immunostimulant (compound 6)) in DMEM were incubated with 180 μL of either α-Mannosidase (0.1 U/mL, 37° C., 5% CO2), or AT3B1 cells (1×105, or 5×105, or 1×10^6 cells, 37° C., 5% CO2) without the addition of exogenous enzyme as shown by FIG. 6. To stop the reaction at the specified time points (0, 1, 2, 3, 6, 12, 24, and 48 h), 50 μL AO Quench Internal Standard (20 μg/mL, 2-methyl-4(3H)-quinazolinone in 1 M formic acid) was added to each individual reaction. Samples were then analyzed via LC-MS/MS.
The AT3B-1 cell line (ATCC CRL-2375, rat prostate epithelial malignant carcinoma) were grown in complete culture media composed of Roswell Park Memorial Institute (RPMI) 1640 medium with 4.5 g/L glucose, 2 mM L-glutamine, 10,000 U/mL penstrep, 10 mM HEPES and supplemented with 10% HI-FBS and 1 μM doxorubicin. Media was changed every 3-4 days omitting the doxorubicin, and cells were passaged once per week. Passaging involved changing media, counting, and seeding 3×10^5 cells in 35 mL of new complete media in a new T-175 culture flask.
α-Mannosidase from Canavalia ensiformis (Jack bean) was used directly from the bottle to make a 1 U/mL stock solution in DPBS. […]

Chain of β-galactosidase (P00722 2-1024): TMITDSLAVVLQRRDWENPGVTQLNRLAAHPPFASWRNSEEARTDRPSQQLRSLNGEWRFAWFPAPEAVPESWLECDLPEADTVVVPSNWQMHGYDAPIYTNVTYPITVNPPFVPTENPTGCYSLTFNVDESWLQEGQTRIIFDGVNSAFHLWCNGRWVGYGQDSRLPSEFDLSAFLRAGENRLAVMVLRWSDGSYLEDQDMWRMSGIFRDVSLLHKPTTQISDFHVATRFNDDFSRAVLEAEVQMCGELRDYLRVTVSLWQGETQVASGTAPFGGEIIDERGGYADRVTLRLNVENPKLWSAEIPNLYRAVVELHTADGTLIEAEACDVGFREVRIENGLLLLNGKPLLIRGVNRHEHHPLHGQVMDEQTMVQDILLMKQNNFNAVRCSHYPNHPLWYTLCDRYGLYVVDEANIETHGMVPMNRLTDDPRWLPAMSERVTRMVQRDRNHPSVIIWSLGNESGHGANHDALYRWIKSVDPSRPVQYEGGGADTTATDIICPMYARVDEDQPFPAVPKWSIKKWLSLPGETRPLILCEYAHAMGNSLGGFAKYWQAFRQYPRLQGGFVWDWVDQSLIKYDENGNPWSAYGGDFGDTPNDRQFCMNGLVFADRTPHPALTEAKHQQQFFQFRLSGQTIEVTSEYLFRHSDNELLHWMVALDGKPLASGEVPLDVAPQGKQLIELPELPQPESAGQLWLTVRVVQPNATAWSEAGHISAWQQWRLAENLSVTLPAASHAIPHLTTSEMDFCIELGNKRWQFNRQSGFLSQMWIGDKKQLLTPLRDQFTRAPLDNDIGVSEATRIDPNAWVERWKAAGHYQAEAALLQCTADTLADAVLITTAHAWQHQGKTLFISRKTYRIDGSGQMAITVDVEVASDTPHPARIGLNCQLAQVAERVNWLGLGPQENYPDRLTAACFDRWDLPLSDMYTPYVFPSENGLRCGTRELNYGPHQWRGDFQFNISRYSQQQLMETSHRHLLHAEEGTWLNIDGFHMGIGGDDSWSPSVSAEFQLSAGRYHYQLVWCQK

Substance: 4-Imiquimod-2-nitrophenyl-galactopyranoside [compound 6]
- depletion of (6) (β-galactosidase; 5 μm in DPBS, β-gal 1 U, 0, 1, 2 min): rapid depletion
- stability without β-gal enzyme (no residual Imiquimod observed) (β-galactosidase; 10 μm (6) without β-gal enzyme): stable
- conversion to Imiquimod (depletion of (6) and formation of Imiquimod) (β-galactosidase; exogenous β-galactosidase 5 mU, over 3 h): near quantitative conversion
- conversion into Imiquimod (β-galactosidase; β-galactosidase 1 U, 2 nmol (200 μL of 10 μm), 16 h, 37° C.): quantitative conversion
- conversion of the compound ([1]; β-galactosidase-enriched B16 cells (5 mU), over 3 h): quantitative conversion
- conversion to Imiquimod ([1]; β-galactosidase-enriched B16 cells, 1×10^5 cells/well, 35 mU/well, 24 h): near quantitative conversion
- conversion into Imiquimod ([1]; β-galactosidase-enriched B16 cells, after 3 h): > 36%
- conversion to Imiquimod and efflux (AT3B1 cells): still being converted in the presence of enzyme and effluxed
